Counter-ions that a name gives are not always drawn.
Tests used:
[1] = biological target: T1, 5HT2 receptors (Rattus norvegicus, UniProt P14842); test: Apparent antagonist dissociation constant (-log KB) versus serotonin-induced contraction of isolated rat jugular vein; design: species or system male Wistar rats; settings: antagonist incubated one hour, 37° C., maleate salt, read-out: 5HT2 -Log Kb ± S.E. (converted)
T1 construct: external jugular veins and thoracic aortas dissected free of connective tissue; from tissue; host or cells: external jugular vein of male Wistar rats
T1 sequence (P14842 whole entry): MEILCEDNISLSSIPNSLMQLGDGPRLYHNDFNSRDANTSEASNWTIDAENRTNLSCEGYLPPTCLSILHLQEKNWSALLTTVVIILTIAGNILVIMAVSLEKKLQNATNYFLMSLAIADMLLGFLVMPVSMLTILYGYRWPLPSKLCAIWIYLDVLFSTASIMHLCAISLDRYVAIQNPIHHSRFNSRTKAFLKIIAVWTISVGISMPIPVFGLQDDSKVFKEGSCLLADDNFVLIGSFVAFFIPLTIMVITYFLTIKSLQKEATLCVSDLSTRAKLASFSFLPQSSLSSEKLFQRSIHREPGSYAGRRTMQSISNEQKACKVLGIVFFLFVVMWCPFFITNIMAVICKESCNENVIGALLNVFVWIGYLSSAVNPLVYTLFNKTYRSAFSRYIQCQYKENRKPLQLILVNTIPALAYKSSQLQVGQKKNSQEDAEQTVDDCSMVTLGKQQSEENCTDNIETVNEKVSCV
Protocol: An initial optimum resting force of 1 and 4 g was applied to the jugular vein and aorta, respectively. […] Exp. Ther., 205, 400 (1978). Alpha receptor antagonist activity was evaluated in the aorta.

[2] = test system: blood pressure; settings: in humans; ketanserin; cited from earlier work
[3] = test system: 5HT2 receptors; settings: in words; cited from earlier work
[4] = test system: vascular alpha adrenergic receptors; settings: in words; Cohen I; cited from earlier work
[5] = test system: dopaminergic receptors; settings: in words; Cohen I; cited from earlier work
[6] = biological target: 5HT2 receptors; settings: cited from earlier work
[7] = test system: histaminergic receptors; settings: in words; Cohen I; cited from earlier work

SMILES: CC(=O)[C@H](C)OC(=O)[C@@H]1C[C@@H]2c3cccc4c3c(cn4C(C)C)C[C@H]2N(C)C1 [SCH(CH3)COCH3, S-1-methyl-2-oxopropyl 1-isopropyl-9,10-dihydrolysergate]
- Kb [1]: 0.269 nM

SMILES: O=C(c1ccc(F)cc1)C1CCN(CCn2c(=O)[nH]c3ccccc3c2=O)CC1 [ketanserin]
- lower blood pressure [2]: lower blood pressure in humans

SMILES: CC(=O)[C@@H](C)OC(=O)[C@@H]1C[C@@H]2c3cccc4c3c(cn4C(C)C)C[C@H]2N(C)C1 [RCH(CH3)COCH3, R-1-methyl-2-oxopropyl 1-isopropyl-9,10-dihydrolysergate maleate]
- Kb [1]: 0.355 nM

SMILES: CC(O)C(C)OC(=O)[C@@H]1C[C@@H]2c3cccc4c3c(cn4C(C)C)C[C@H]2N(C)C1 (stereo partly drawn) [LY53857, 1-isopropyl-6-methyl-8β-(1-methyl-2-hydroxy)propoxycarbonyl-5R-ergoline]
- peripheral serotonin antagonist activity, ranking among Garbrecht compounds [3]: most active peripheral serotonin antagonist
- affinity for vascular alpha adrenergic receptors [4]: minimal affinity
- affinity for dopaminergic receptors [5]: minimal affinity
- Kd ([6]; Cohen et al. J.P.E.T., 227, 327 (1983), read-out: Kdissoc. (5HT2 receptors)): ~0.1 nM
- antagonism of vascular contraction to serotonin ([6]; effect mediated by 5HT2 receptors, Cohen I): potent antagonist of vascular contraction to serotonin
- affinity for histaminergic receptors [7]: minimal affinity
